The text below walks through data of US8372808B2, “Suppression of glial fibrillary acidic protein” (Wisconsin Alumni Research Foundation, priority 2008, dated 2013).

Structures can show the parent of a compound that is named as a salt. Where two headings read alike, the source gives them in different places. Where only a bound is given, the exact number is not on record here.

Data set [1] has as its system 2.2 kb human GFAP promoter. As to the kind of experiment: hGFAP promoter luciferase activity assay in 172.9 cells (primary astrocytes from dual luciferase transgenic mice). In kind it is cell-based. The following applies: for effect on GFAP promoter activity (luciferase expression driven by the hGFAP promoter): 172.9 cells, 3 days of treatment, 0-20 μM; for % GFAP reductions, luciferace expression from hGFAP promoter: tertiary screen, 48 hr exposure, at the MTDcc. Here is the method: Cell-based assays were performed as four different screens using enriched cortical primary astrocyte cultures developed from transgenic mice expressing both firefly and Renilla luciferase reporter genes were generated. Briefly, the'firefly luciferase was placed under the control of a 2.2 kb human GFAP promoter to monitor GFAP transcription, and the Renilla luciferase was placed under the control of a 0.5 kb human GAPDH (glyceraldehyde 3-phosphate dehydrogenase) promoter to monitor transcription of a housekeeping gene for signal normalization. See section B, below for more detail regarding the development of transgenic mouse strains. Cells used in the following examples (e.g., the cortical primary astrocyte cells termed “172.9 cells,” described below) were developed from the transgenic mice described in section B.
Briefly, the cortices from individual pups were freed of meninges and placed into DMEM (Gibco) without serum, mechanically disassociated into single cells, suspended in medium containing DMEM supplemented with 10% fetal bovine serum (FBS; Hyclone), 100 U/ml penicillin, 100 μg/ml streptomycin (Gibco), seeded into T25 flasks (one brain per flask), and maintained in a humidified 5% CO2 atmosphere at 37° C. […] Medium was changed every 3 days. At 14-16 days in vitro (DIV), the flasks were shaken overnight at 200 rpm to remove oligodendrocytes and microglia. […] The cells were then suspended in DMEM with 10% FBS and plated (“passage 2”) on either 35 mm dishes, […], or 96-well plates (Corning) as needed. Cells were grown for varying days in vitro (DIV) at passage 2 and then used for various experiments. Tissue culture dishes and plates were pre-coated with 100 μg/ml poly-L-lysine for 1 h in a humidified 5% CO2 atmosphere at 37° C., and then allowed to air dry. […] Cell density was measured with the Vi-CELL cell counter (Beckman Coulter) or hemocytometer by the trypan-blue exclusion method. For simplicity, cells are referred to as “172.9 cells.”
Briefly, 172.9 cells were plated on poly-L coated white 96-well plates at a density of 5000 cells per well, in 100 μl DMEM with 10% FBS. At twenty-four hours, cells were exposed to the different compounds at a final concentration of 10 μM (diluted from a 50 mM stock) prepared in new medium (DMEM with 10% FBS). […] After exposure to compounds, luciferase activity in the primary and secondary screenings was determined by adding 30 μl of Bright-Glo™ reagent (Promega) to the 100 μl of media and cells of each well in the white 96-well plates with the Biomek® FX liquid handler (Beckman Coulter). After incubation for 1 minute at room temperature, signals were measured with the Safire 2 plate reader using Magellan™ software (Tecan). Other specific methods and equipment are known in the art and can be used to measure luciferase expression levels. This assay method is termed the “hGFAP promoter luciferase activity assay.” A reduction in luciferase expression as determined by this assay is termed “hGFAP promoter luciferase reduction.” For some assays that were aimed at confirming results of the initial screens, the same amount of Bright-Glo™ reagent was applied to each well in 96-well plates and signals were detected with the GloRunner™ Microplate Luminometer (Turner Biosystems) using the Dual-Glo® luciferase assay according to the manufacturer's recommendations (E1910, Promega).
In the secondary screen, cells were plated in a 96-well plate as described above for the primary screen.
Some compounds were unavailable outside of the library collections, and could not be further tested.
Each compound and concentration was analyzed in quadruplicate wells.
Compounds were tested at eight different concentrations ranging from 0-20 μM. In addition, GFAP protein levels were measured using a sandwich ELISA, which has greater sensitivity and is more accurate than the cell-based ELISA used in the primary screens.

Data set [2] has as its system mGFAP protein. As to the kind of experiment: GFAP protein levels by ELISA in 172.9 cells treated with betulinic acid derivatives. In kind it is cell-based, mouse. To be noted: 7 days of treatment, 0-20 μM. Here is the method: FIG. 9A-D are graphs showing the effects of betulinic acid and betulinic acid derivatives on mGFAP protein levels in 172.9 cells after 7 days of treatment. In the graphs, ester and amide forms of various compounds are paired for comparison.
172.9 cells were used to test the effects of betulinic acid and betulinic acid derivatives on GFAP promoter activity and GFAP protein levels. Experiments were performed as previously described. Each of eight compounds (D-altroside (ester); D-altroside (amide); D-xyloside (ester); D-xyloside (amide); aglycon (ester); aglycon (amide); betulinic acid; 3-amino betulinic acid) was tested at a concentration of 0 μM, 0.1 μM, 0.5 μM, 1 μM, 5 μM, 10 μM, 15 μM, and 20 μM. […] Toxicity of the compounds was also evaluated.

The test system of data set [3] is mGFAP protein. Description: cell-based GFAP protein level assay (cell-based ELISA) in 172.9 cells. Further details: species or system mouse. To be noted: for % GFAP reductions, mGFAP protein via ELISA: tertiary screen, 48 hr exposure, at the MTDcc. A general note: In an ELISA, binding on a coated surface is turned into a signal by an enzyme label.
For the next data set, the system named is 172.9 cells. As to the kind of experiment: cell viability (CellTiter-Glo) / MTDcc in 172.9 cells. On the procedure:
Criterion for acceptable viability was >70% survival.
Cell viability was determined as follows. After exposure to each compound (duplicate wells per compound), 50 μl of CellTitier-Glo Luminescent Cell Viability Assay reagent (G7571, Promega) was added to the 100 μl of media present in each well, and the luminescent signal (reflecting intracellular ATP level) was detected with either a Victor 3-V plate reader (Perkin Elmer) or GloRunner Microplate Luminometer (Turner Biosystems). Cell viability was expressed as a percent of non-treated control cells.
A dose-response curve was created for each compound (0.1, 0.5, 1, 5, 10, 15, 20 μM) using 48 hr exposures. The MTDcc (“maximum tolerated dose—cell culture”) indicates the highest concentration that retained at least 70% cell viability. Each compound and concentration was analyzed in quadruplicate wells. EGCDG: epigallocatechin 3,5-digallate; NPPB: 5-nitro-2-phenylproplyaminobenzoic acid. As used herein, MTDcc refers to the MTD as determined by this assay under the above conditions.
A general note: Cellular ATP, detected with luciferase, serves as a proxy for viable cell number.

Where [4] appears, read: secondary screen, 10 μM, 48 hours.
The mark [5] stands for this setting: tertiary screen, 48 hr exposure, 0.1-20 μM, highest concentration that retained at least 70% cell viability.

Consider `C=C(C)[C@@H]1CC[C@]2(C(=O)O)CC[C@]3(C)[C@H](CCC4[C@@]5(C)CC[C@H](N)C(C)(C)C5CC[C@]43C)C12` (stereo partly drawn) [3-amino betulinic acid, (3S)-Aminobetulinic acid], for which, in data set [1], the “effect on GFAP promoter activity (luciferase expression driven by the hGFAP promoter)” value (from here on “effect on GFAP promoter activity”) was “decrease in GFAP promoter activity”. Further, the “effect on GFAP protein levels” value with mGFAP protein [2] is given as “reduced GFAP protein levels more than the ester form”.
The matching figures for `C=C(C)[C@@H]1CC[C@]2(C(=O)O)CC[C@]3(C)[C@H](CCC4[C@@]5(C)CC[C@H](OC(=O)CN(OC)[C@@H]6OC(CO)[C@@H](O)C(O)C6O)C(C)(C)C5CC[C@]43C)C12` (stereo partly drawn) [D-altroside (ester), (3S)—O—(N-Methoxy-N-β-D-altrosylglycyl)betulinic acid]: “more dramatic decrease in GFAP promoter activity than the amide form” and “reduced GFAP protein levels more than the amide form”.
As to `C=C(C)[C@@H]1CC[C@]2(C(=O)O)CC[C@]3(C)[C@H](CCC4[C@@]5(C)CC[C@H](OC(=O)CN(OC)[C@@H]6OC[C@@H](O)C(O)C6O)C(C)(C)C5CC[C@]43C)C12` (stereo partly drawn) [D-xyloside (ester), (3S)—O—(N-Methoxy-N-β-D-xylosylglycyl)betulinic acid], the “effect on GFAP promoter activity” value in data set [1] is recorded as “more dramatic decrease in GFAP promoter activity than the amide form”. Moreover, the “effect on GFAP protein levels” value in the data set with mGFAP protein [2] is “reduced GFAP protein levels more than the amide form”.
Regarding `C=C(C)[C@@H]1CC[C@]2(C(=O)O)CC[C@]3(C)[C@H](CCC4[C@@]5(C)CC[C@H](NC(=O)CNOC)C(C)(C)C5CC[C@]43C)C12` (stereo partly drawn) [aglycon (amide), (3S)—N—(N′-Methoxyglycyl)aminobetulinic acid], the “effect on GFAP protein levels” value in the data set on mGFAP protein [2] is “reduced GFAP protein levels more than the ester form”.
On to `C=C(C)[C@@H]1CC[C@]2(C(=O)O)CC[C@]3(C)[C@H](CCC4[C@@]5(C)CC[C@H](OC(=O)CNOC)C(C)(C)C5CC[C@]43C)C12` (stereo partly drawn) [aglycon (ester), (3S)—O—(N-Methoxyglycyl)betulinic acid], for which the “effect on GFAP promoter activity” value in data set [1] is reported as “decreased luciferase expression”. The “effect on GFAP protein levels” value with mGFAP protein [2] is “minimal effect”.
In the case of `COc1ccc2c(c1)O[C@@H]1COc3cc(OC)c(OC)cc3[C@@H]1C2=O` [mundoserone], in data set [1] (setting [4]), the “suppression in the promoter assay” value is on record as “significant suppression”. The “% GFAP reductions, luciferace expression from hGFAP promoter” value (shortened to “% GFAP reductions, luciferace expression”) in data set [1] was found to be 50%. In the data set with mGFAP protein [3] (setting [4]), the “suppression in the protein assay” value is “significant suppression”. The “% GFAP reductions, mGFAP protein via ELISA” value with mGFAP protein [3] was found to be 1.6%. The MTDcc in the data set with 172.9 cells (mouse, 48 h) is greater than 20 µM.
On to `NC[C@H]1O[C@H](O[C@H]2[C@H](O)[C@@H](O)[C@H](N)C[C@@H]2N)[C@H](N)[C@@H](O)[C@@H]1O` [neamine], for which, in data set [1], the “% GFAP reductions, luciferace expression” value is listed as 5%. The “% GFAP reductions, mGFAP protein via ELISA” value with mGFAP protein [3] is listed as −0.8%. Also, the MTDcc with 172.9 cells (setting [5]) is greater than 20 µM.
On to `O=C1CCCN1CC#CCN1CCCC1` [oxotremorine], for which the “% GFAP reductions, luciferace expression” value in data set [1] is listed as 16%. In the data set on mGFAP protein [3], the “% GFAP reductions, mGFAP protein via ELISA” value came out at 2.7%. In the data set on 172.9 cells (setting [5]), the MTDcc is greater than 20 µM.
Consider `CC(C)(CO)[C@@H](O)C(=O)NCCC(=O)O` [pantothenic acid], for which the “% GFAP reductions, luciferace expression” value in data set [1] is on record as 6%. In addition, the “% GFAP reductions, mGFAP protein via ELISA” value in the data set on mGFAP protein [3] is listed as −3.5%. The compound also gave an MTDcc with 172.9 cells (mouse, 48 h) greater than 20 µM.
Take `CN(CC(=O)O)C(=N)NP(=O)(O)O` [phosphocreatine]: the “% GFAP reductions, luciferace expression” value in data set [1] is recorded as 13%. Moreover, the “% GFAP reductions, mGFAP protein via ELISA” value in the data set with mGFAP protein [3] was 3.8%. The compound also gave an MTDcc in the data set on 172.9 cells (setting [5]) greater than 20 µM.
Consider `Cc1nc2sccn2c(=O)c1CCN1CCC(=C(c2ccc(F)cc2)c2ccc(F)cc2)CC1` [ritanserin], for which, in data set [1], the “% GFAP reductions, luciferace expression” value was determined as 29%. The “% GFAP reductions, mGFAP protein via ELISA” value with mGFAP protein [3] turned out to be 9.6%. In the data set with 172.9 cells (mouse, 48 h), the MTDcc amounted to 12.5 µM.
The matching figures for `CC(NCCc1ccc(O)cc1)C(O)c1ccc(O)cc1` (centres unmarked) [ritodrine]: 16%, 5.2% and greater than 20 µM.
For `COC(=O)[C@H](O)[C@H]1C(C)(C)[C@H](OC(C)=O)[C@@H]2CC3=C4CC(=O)O[C@@H](c5ccoc5)[C@]4(C)CC[C@@H]3[C@@]1(C)C2=O` [swietenolide-3-acetate], in data set [1], the “% GFAP reductions, luciferace expression” value is 8%. Further, the “% GFAP reductions, mGFAP protein via ELISA” value with mGFAP protein [3] is given as 0.7%. The MTDcc in the data set with 172.9 cells was greater than 20 µM.
For the compound `CC/C(=C(\c1ccccc1)c1ccc(OCCN(C)C)cc1)c1ccccc1` [tamoxifen citrate], in data set [1], the “% GFAP reductions, luciferace expression” value came out at 52%. The “% GFAP reductions, mGFAP protein via ELISA” value in the data set with mGFAP protein [3] amounted to 21.6%. Moreover, the MTDcc with 172.9 cells (mouse, 48 h) turned out to be 7.5 µM.
In the case of `CSc1ccc2c(c1)N(CCC1CCCCN1C)c1ccccc1S2` (centres unmarked) [thioridazine], in data set [1], the “% GFAP reductions, luciferace expression” value is given as 37%. Also, the “% GFAP reductions, mGFAP protein via ELISA” value in the data set with mGFAP protein [3] is 17.7%. In addition, the MTDcc in the data set on 172.9 cells (mouse, 48 h) is 5 µM.
For `COc1ccc(C(=O)O)cc1OC` [veratic acid], the “% GFAP reductions, luciferace expression” value in data set [1] is listed as 6%. In addition, the “% GFAP reductions, mGFAP protein via ELISA” value in the data set on mGFAP protein [3] is recorded as −0.8%. The same compound returned an MTDcc in the data set on 172.9 cells (setting [5]) greater than 20 µM.
The matching figures for methylnorlichexanthone: 10%, 0.6% and greater than 20 µM.
As for pyrogallin, in data set [1], the “% GFAP reductions, luciferace expression” value was found to be 22%. Moreover, the “% GFAP reductions, mGFAP protein via ELISA” value with mGFAP protein [3] worked out at 3.3%. Moreover, the MTDcc in the data set on 172.9 cells (setting [5]) is greater than 20 µM.
